Results published in PMC11006503, “New Tin (IV) and Organotin (IV) Complexes with a Hybrid Thiosemicarbazone/Hydrazone Ligand: Synthesis, Crystal Structure, and Antiproliferative Activity” (Bioinorganic Chemistry and Applications, 2024).
“Also recorded” adds a separate entry of the source. Read-outs that look alike come from different tables or passages of the source.

Experiments:
Assay type in all cases: cell-based, human
MDA-MB-231 = test: MTT cell proliferation assay; details: for IC50: MTT, mean ± SEM, read-out: IC50 MDA-MB231
Method: (§1) Four cancerous cell lines (human triple negative breast cancer cell line MDA-MB-231, human cervical cancer cell line HeLa, human prostate cancer cell line PC3, and human liver cancer cell line HepG2) and the human normal lung fibroblast cell line, WI-38, were obtained from the central cell repository of National Centre for Cell Science (NCCS), Pune. The cell lines were cultured in a T25 flask with Dulbecco's modified Eagle medium (DMEM), supplemented with 10% foetal bovine serum, nonessential amino acids, 1 mM sodium pyruvate, 2 mM L-glutamine, 100 mg/L streptomycin, […] penicillin, and 50 mg/L gentamycin in a 37°C humidified incubator containing 5% CO2. […] As DMSO has been used to prepare the different concentrations of the compounds, we have added 0.5% DMSO in the control setup. After the incubation period, media was discarded from the 96-well plates and washed with 1 × PBS solution twice. Then, MTT (100 µL; 0.5 mg/mL) was added to each well and incubated in a humidified incubator containing 5% CO2 at 37°C for 4 h. After discarding the supernatant, the purple-colored formazan crystals formed in the wells were dissolved with 100 μL DMSO per well and the absorbance was estimated at 490 nm using a microplate reader. The experiments were repeated three times, and the cell viability was expressed as a percentage of the control experimental setup. […] For all the MTT assays, three fully independent experiments have been performed, and each experiment has been conducted with biological triplicate samples.

[1] = system: WI-38 normal lung fibroblast cell line; test: MTT cell proliferation assay; details: for IC50: normal cell line, MTT, mean ± SEM
Method: as §1

HepG2 = test: MTT cell proliferation assay; details: for IC50: MTT, mean ± SEM
Method: as §1

HeLa = test: MTT cell proliferation assay; details: 24 h; for IC50: MTT, mean ± SEM
Method: as §1

PC3 = test: MTT cell proliferation assay; details: for IC50: MTT, mean ± SEM
Method: as §1

MDA-MB-231 cells [2] = test: Mitochondrial membrane potential by JC1 staining (fluorescence microscopy and flow cytometry); details: for cellular population with increase in JC1 green fluorescence intensity (flow cytometry): control 3.93%
Method: The changes in mitochondrial membrane permeability were determined by JC1 (molecular probes). MDA-MB-231 cells were treated with compound 3 (0.25 µM, 0.5 µM, and 1 µM) for the indicated time period, harvested, washed twice in 1 × PBS, resuspended in PBS supplemented with JC1 dye (3 µM final concentration), and incubated for 15 min in the dark at 37°C and flow cytometric analysis was immediately performed using a FACSVerse instrument (BD) or images were captured with fluorescent microscope (Leica).

MDA-MB-231 cells [3] = test: Cellular ROS measurement using DCFDA (fluorescence microscopy and flow cytometry)
Method: To measure the production of intercellular reactive oxygen species (ROS) produced by treatment with complex 3, the DCFDA method was used. MDA-MB-231 cells were seeded in a 6-well plate and treated with complex 3 (0.25 µM, 0.5 µM, and 1 µM) for 24 h using arsenic as a positive control agent and NAC as negative control. Post treatment, the media was discarded and incubated with 10 µM H2DCFDA for 30 min at 37°C. For fluorescence imaging, cells incubated with H2DCFDA were washed, resuspended in 1 × PBS, and directly imaged under a fluorescence microscope (Leica). For flow cytometric analysis, cells were then trypsinized, washed with 1 × PBS, and collected in centrifuge tubes. DCF fluorescence was measured using BD FACSVerse flow cytometer (BD Biosciences) and analyzed using Cell Quest software (BD Biosciences).

MDA-MB-231 cells [4] = test: Cell cycle profiling by propidium iodide staining (flow cytometry); details: 1.0 µM, 24 h, mean ± SEM
Method: MDA-MB-231 cells were seeded at a density of 1 × 10^6 cells/mL in each Petri dish for 24 h. Thereafter, the cells were treated with increasing concentration of complex 3 (0.25 µM, 0.5 µM, and 1 µM) for 24 h and 0.5% DMSO was added in the control setup. Post treatment, cells were harvested into single cell suspension and fixed by 75% ethanol for 24 h. at −20°C. After centrifugation, the cells pellets were resuspended in 1 × PBS followed by RNaseA (20 μM) treatment for 2 h at 37°C. Finally, propidium iodide was added and incubated at room temperature for 20 min. Subsequently, the samples were measured using BD FACSVerse flow cytometer (BD Biosciences, San Jose, CA) and analyzed using BD FACS DIVA software.

MDA-MB-231 cells [5] = test: Annexin V-FITC/PI staining apoptosis assay (flow cytometry); details: for annexin-V-FITC+/PI− (early apoptotic) and annexin V-FITC+/PI+ (late apoptotic) cell population: control 0.01%
Method: Induction of apoptosis was quantified via flow cytometric analysis of control ([…]) and cells treated with complex 3 (0.25 µM, 0.5 µM, and 1 µM) that were stained with annexin V-FITC/PI [50], using the Annexin V-FITC apoptosis detection kit according to the manufacturer's protocol (BD Bioscience). Post treatment cells were harvested with 1 × trypsin and washed in ice 1 × PBS followed by resuspension in 100 µL of 1 × binding buffer solution supplied within the kit. Finally, cells were incubated with 5 μL of annexin V-FITC and 5 μL of PI for 15 min at room temperature in the dark before acquiring data using BD FACSVerse flow cytometer (BD Biosciences, San Jose, CA). Annexin V/FITC positive cells were regarded as apoptotic cells analyzed using Cell Quest software (BD Biosciences).

Work on `CC(=N\NC(=O)c1ccncc1)/C(C)=N/NC(N)=S` [[L ^ 1 H 3 ]Cl] [Diacetyl-2-(Thiosemicarbazone)-3-(Isonicotinichydrazonium) Chloride] yielded an IC50 (MDA-MB-231; 24 h) of 2.48 ± 0.47 µM, an IC50 ([1]; 24 h) of 14.1 ± 0.48 µM and an IC50 (HepG2; 24 h) of 6.27 ± 0.98 µM. For the same molecule, the IC50 (HeLa) was 1.49 ± 0.46 µM and the IC50 (PC3; 24 h) was 3.49 ± 0.73 µM.

`CC1=[N+]2N=C(N)[S][Sn-2]23([c]2ccccc2)([c]2ccccc2)[O]C(c2ccncc2)=N[N+]3=C1C` [complex 3, [SnPh2L^1]n] was tested, and the “JC1 aggregate/JC1 monomer fluorescence intensity ratio (fluorescence microscopy)” value (MDA-MB-231 cells [2]; 0.25 µM, 24 h) was 1.36 ± 0.78, the “cellular population with increase in JC1 green fluorescence intensity (flow cytometry)” value (“cellular population with increase” for short) (MDA-MB-231 cells [2]; 0.25 µM, 24 h) was 37.47% and the “cellular population with increase” value (MDA-MB-231 cells [2]; 0.5 µM, 24 h) was 52.22%. For the same molecule, the “JC1 aggregate/JC1 monomer fluorescence intensity ratio (fluorescence microscopy)” value (MDA-MB-231 cells [2]; 1 µM, 24 h) was 0.27 ± 0.13, the “cellular population with increase” value (MDA-MB-231 cells [2]; 1 µM, 24 h) was 74.51% and the “mean fluorescence intensity (MFI), fold change in comparison with the control (H2DCFDA, flow cytometry)” value (MDA-MB-231 cells [3]; 0.25 µM, 24 h) was 1.47 ± 0.17 fold. The “mean fluorescence intensity (MFI), fold change in comparison with the control (H2DCFDA, flow cytometry)” value (MDA-MB-231 cells [3]; 0.5 µM, 24 h) was 2.58 ± 0.23 fold, the “ROS generation / MFI in cells pretreated with N-acetylcysteine (NAC)” value (MDA-MB-231 cells [3]; 1 µM, 10 mM NAC pretreatment, compared to complex 3 alone) was “reduce the generation of ROS; also recorded: decrease in the MFI value” and the “fold increase in fluorescence intensity in comparison to control (H2DCFDA, fluorescence microscopy)” value (MDA-MB-231 cells [3]; 1 µM, 24 h) was 3.57 ± 0.08 fold. The “mean fluorescence intensity (MFI), fold change in comparison with the control (H2DCFDA, flow cytometry)” value (MDA-MB-231 cells [3]; 1 µM, 24 h) was 4.73 ± 0.14 fold, the “G2/M cell population (G2/M arrest)” value (MDA-MB-231 cells [4]) was 56.07% and the “early apoptotic cell population (LR quadrant)” value (“early apoptotic cell population” below) (MDA-MB-231 cells [5]; 0.25 µM, 24 h) was 15.99%. The “late apoptotic cell population (UR quadrant)” value (“late apoptotic cell population” below) (MDA-MB-231 cells [5]; 0.25 µM, 24 h) was 5.24%, the “annexin-V-FITC+/PI− (early apoptotic) and annexin V-FITC+/PI+ (late apoptotic) cell population” value (shortened to “annexin-V-FITC+/PI−”) (MDA-MB-231 cells [5]; 0.25 µM, 24 h) was 21.23% and the “early apoptotic cell population” value (MDA-MB-231 cells [5]; 0.5 µM, 24 h) was 36.25%. For the same molecule, the “late apoptotic cell population” value (MDA-MB-231 cells [5]; 0.5 µM, 24 h) was 21.56%, the “annexin-V-FITC+/PI−” value (MDA-MB-231 cells [5]; 0.5 µM, 24 h) was 57.81% and the “early apoptotic cell population” value (MDA-MB-231 cells [5]; 1 µM, 24 h) was 32.32%. For the same molecule, the “late apoptotic cell population” value (MDA-MB-231 cells [5]; 1 µM, 24 h) was 34.15%, the “annexin-V-FITC+/PI−” value (MDA-MB-231 cells [5]; 1 µM, 24 h) was 66.47% and the “necrotic cell population zone” value (MDA-MB-231 cells [5]; 0.25, 0.5 and 1 µM, 24 h) was “No significant cell population”. The “Percentage of cell viability MDA-MB 231” value (MDA-MB-231; 0.25 µM, 24 h) was 65.43%, the “Percentage of cell viability MDA-MB 231” value (MDA-MB-231; 0.5 µM, 24 h) was 50.06% and the “Percentage of cell viability MDA-MB 231” value (MDA-MB-231; 1 µM, 24 h) was 28.63%. For the same molecule, the “Percentage of cell viability MDA-MB 231” value (MDA-MB-231; 2 µM, 24 h) was 20.19%, the “Percentage of cell viability MDA-MB 231” value (MDA-MB-231; 5 µM, 24 h) was 18.37% and the IC50 (MDA-MB-231; 24 h) was 0.51 ± 0.13 µM. For the same molecule, the “Percentage of cell viability WI-38” value ([1]; 0.25 µM, 24 h) was 98.36%, the “Percentage of cell viability WI-38” value ([1]; 0.5 µM, 24 h) was 95.32% and the “Percentage of cell viability WI-38” value ([1]; 1 µM, 24 h) was 80.17%. The “Percentage of cell viability WI-38” value ([1]; 2 µM, 24 h) was 76.21%, the “Percentage of cell viability WI-38” value ([1]; 5 µM, 24 h) was 70.24% and the IC50 ([1]; 24 h) was 15.7 ± 0.28 µM. For the same molecule, the “Percentage of cell viability HepG2” value (HepG2; 0.25 µM, 24 h) was 80.36%, the “Percentage of cell viability HepG2” value (HepG2; 0.5 µM, 24 h) was 70.36% and the “Percentage of cell viability HepG2” value (HepG2; 1 µM, 24 h) was 58.39%. For the same molecule, the “Percentage of cell viability HepG2” value (HepG2; 2 µM, 24 h) was 45.27%, the “Percentage of cell viability HepG2” value (HepG2; 5 µM, 24 h) was 30.68% and the IC50 (HepG2; 24 h) was 1.59 ± 0.17 µM. For the same molecule, the “Percentage of cell viability Hela” value (HeLa; 0.25 µM) was 70%, the “Percentage of cell viability Hela” value (HeLa; 0.5 µM) was 46.24% and the “Percentage of cell viability Hela” value (HeLa; 1 µM) was 30.21%. The “Percentage of cell viability Hela” value (HeLa; 2 µM) was 25.19%, the “Percentage of cell viability Hela” value (HeLa; 5 µM) was 20.16% and the “Percentage of cell viability PC3” value (PC3; 0.25 µM, 24 h) was 82.17%. For the same molecule, the “Percentage of cell viability PC3” value (PC3; 0.5 µM, 24 h) was 76.09%, the “Percentage of cell viability PC3” value (PC3; 1 µM, 24 h) was 60.16% and the “Percentage of cell viability PC3” value (PC3; 2 µM, 24 h) was 48.24%. The “Percentage of cell viability PC3” value (PC3; 5 µM, 24 h) was 35.73% and the IC50 (PC3; 24 h) was 1.97 ± 0.24 µM.

With `[As]` [arsenic, reference compound] the “mean fluorescence intensity (MFI), fold change in comparison with the control (H2DCFDA, flow cytometry)” value (MDA-MB-231 cells [3]; 1 µM, 24 h) was 4.91 ± 0.05 fold and the “fold increase of green fluorescence intensity (H2DCFDA, fluorescence microscopy)” value (MDA-MB-231 cells [3]; positive control, concentration not given) was 4.28 ± 0.09 fold.

In the case of `CC(=N\NC(=O)c1ccncc1)/C(C)=N/NC(N)=S` [L ^ 1 H 2, Diacetyl-2-(Thiosemicarbazone)-3-(Isonicotinichydrazone)], the IC50 (MDA-MB-231; Homo sapiens, MDA-MB-231, 24 h) is reported as 2.42 ± 0.33 µM, the IC50 ([1]; Homo sapiens, WI-38, 24 h) is reported as 10.8 ± 0.96 µM and the IC50 (HepG2; Homo sapiens, HepG2, 24 h) is reported as 5.14 ± 0.52 µM. For the same molecule, the IC50 (HeLa; Homo sapiens, HeLa) was 1.06 ± 0.21 µM and the IC50 (PC3; Homo sapiens, PC-3, 24 h) was 4.86 ± 0.75 µM.

In the case of `N.N.[Cl][Pt][Cl]` [Cisplatin, cisplatin, reference compound], the “JC1 aggregate/JC1 monomer fluorescence intensity ratio (fluorescence microscopy)” value (MDA-MB-231 cells [2]; 8 µM) is reported as 0.25 ± 0.06, the “early apoptotic cell population” value (MDA-MB-231 cells [5]; 8 µM, positive control) is reported as 44.46% and the “late apoptotic cell population” value (MDA-MB-231 cells [5]; 8 µM, positive control) is reported as 18.52%. For the same molecule, the IC50 (MDA-MB-231; 24 h) was 8.25 ± 1.64 µM, the IC50 ([1]; 24 h) was 20.6 ± 1.52 µM and the IC50 (HepG2; 24 h) was 11.5 ± 2.06 µM. It also gave an IC50 (HeLa) of 3.26 ± 0.23 µM and an IC50 (PC3; 24 h) of 5.36 ± 1.24 µM.

`CC1=[N+]2N=C(N)[S][Sn-2]23([CH3])([CH3])[O]C(c2ccncc2)=N[N+]3=C1C` [complex 1, [SnMe2L^1]n] showed an IC50 (MDA-MB-231; 24 h) of 3.54 ± 0.34 µM, an IC50 ([1]; 24 h) of 15.6 ± 0.73 µM and an IC50 (HepG2; 24 h) of 4.97 ± 0.76 µM. For the same molecule, the IC50 (HeLa) was 2.22 ± 0.54 µM and the IC50 (PC3; 24 h) was 2.76 ± 0.52 µM.
